Target: Human VPS34 (Homo sapiens (Human), UniProt Q8NEB9)
Assay: Human VPS34 enzyme assay (Adapta TR-FRET)
Type: biochemical
Details: compound concentration 1.11 μM; for inhibition at 1.11 µM: read-out: Percent Inhibition

Chain of Human VPS34 (Q8NEB9 whole entry): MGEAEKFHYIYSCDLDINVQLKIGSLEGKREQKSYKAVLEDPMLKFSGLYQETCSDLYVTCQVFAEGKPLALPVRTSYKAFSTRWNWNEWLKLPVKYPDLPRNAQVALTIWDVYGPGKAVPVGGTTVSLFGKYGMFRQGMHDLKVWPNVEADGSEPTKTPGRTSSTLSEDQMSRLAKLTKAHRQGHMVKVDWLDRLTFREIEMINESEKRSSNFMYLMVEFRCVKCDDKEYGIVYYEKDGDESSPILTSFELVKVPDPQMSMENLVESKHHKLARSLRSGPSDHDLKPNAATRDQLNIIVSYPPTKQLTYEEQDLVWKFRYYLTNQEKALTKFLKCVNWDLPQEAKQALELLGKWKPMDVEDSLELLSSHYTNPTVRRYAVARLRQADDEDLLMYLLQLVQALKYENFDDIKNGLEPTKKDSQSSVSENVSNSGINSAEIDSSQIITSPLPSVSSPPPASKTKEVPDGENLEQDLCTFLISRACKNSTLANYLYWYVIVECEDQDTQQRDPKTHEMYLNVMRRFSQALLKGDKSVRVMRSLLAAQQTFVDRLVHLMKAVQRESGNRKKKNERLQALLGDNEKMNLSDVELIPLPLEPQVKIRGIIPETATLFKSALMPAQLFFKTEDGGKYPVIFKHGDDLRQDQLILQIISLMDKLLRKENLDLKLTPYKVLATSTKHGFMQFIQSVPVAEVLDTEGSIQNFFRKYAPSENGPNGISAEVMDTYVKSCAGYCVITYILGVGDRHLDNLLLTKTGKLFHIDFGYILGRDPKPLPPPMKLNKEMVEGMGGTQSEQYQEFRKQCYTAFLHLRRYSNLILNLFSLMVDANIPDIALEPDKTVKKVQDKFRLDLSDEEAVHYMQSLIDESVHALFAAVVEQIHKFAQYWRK

inhibition at 1.11 µM [%] | Percent Inhibition [%] | SMILES
96 |  | Cc1ncc(-c2ccnc(Nc3ccnc(C4CC4)n3)c2)cc1NC(=O)N1CC(F)(F)C1 [Compound I-368, N-(2′-((2-cyclopropylpyrimidin-4-yl)amino)-6-methyl-[3,4′-bipyridin]-5-yl)-3,3-difluoroazetidine-1-carboxamide]
97 |  | Cc1c(-c2ccnc(Nc3ccnc(C4CC4)n3)c2)cnc(Cl)c1C(=O)O [Compound I-369, 6-chloro-2′-((2-cyclopropylpyrimidin-4-yl)amino)-4-methyl-[3,4′-bipyridine]-5-carboxylic acid]
> 99 |  | CCN(CC)S(=O)(=O)c1cc(-c2ccnc(NC(C)=O)c2)cnc1C [Compound I-370, N-[5-(diethylsulfamoyl)-6-methyl-3,4′-bipyridin-2′-yl]acetamide]
 | >99 | CC(=O)Nc1cc(-c2ccnc(Nc3ccnc(C4CC4)n3)c2)cn2nccc12 [Compound I-371, N-(6-{2-[(2-cyclopropylpyrimidin-4-yl)amino]pyridin-4-yl}pyrazolo[1,5-a]pyridin-4-yl)acetamide]
 | >99 | CC(=O)Nc1cc(-c2cnc(Cl)c(NS(=O)(=O)N(C)C)c2)ccn1 [Compound I-372, N-{6-chloro-5-[(dimethylsulfamoyl)amino]-3,4′-bipyridin-2′-yl}acetamide]
> 99 |  | CCCCS(=O)(=O)Nc1cc(-c2ccnc(NC(C)=O)c2)cnc1C [Compound I-373, N-{5-[(butylsulfonyl)amino]-6-methyl-3,4′-bipyridin-2′-yl}acetamide]
> 99 |  | CC(=O)Nc1cc(-c2cnc(C)c(NS(=O)(=O)N3CCC(F)(F)CC3)c2)ccn1 [Compound I-374, N-(5-{[(4,4-difluoropiperidin-1-yl)sulfonyl]amino}-6-methyl-3,4′-bipyridin-2′-yl)acetamide]
99 |  | COc1nc(C)nc(Nc2cc(-c3cnc(C)c(NS(=O)(=O)c4ccc(F)cc4F)c3)ccn2)n1 [Compound I-375, 2,4-difluoro-N-{2′-[(4-methoxy-6-methyl-1,3,5-triazin-2-yl)amino]-6-methyl-3,4′-bipyridin-5-yl}benzenesulfonamide]
94 |  | CC(=O)Nc1cc(-c2cnc3c(c2)S(=O)(=O)N(C24CC(C2)C4)CCO3)ccn1 [Compound I-376, N-{4-[2-(bicyclo[1.1.1]pent-1-yl)-1,1-dioxido-3,4-dihydro-2H-pyrido[2,3-b][1,4,5]oxathiazepin-8-yl]pyridin-2-yl}acetamide]
95 |  | CC(=O)Nc1cc(-c2cnc(C)c(NS(=O)(=O)c3cccc(F)c3F)c2)ccn1 [Compound I-377, N-(5-{[(2,3-difluorophenyl)sulfonyl]amino}-6-methyl-3,4′-bipyridin-2′-yl)acetamide]
66 |  | Cc1nccc(Nc2cc(-c3cnc4c(c3)C(=O)N(Cc3ccccc3)CC4)ccn2)n1 [Compound I-378, 6-benzyl-3-[2-[(2-methylpyrimidin-4-yl)amino]-4-pyridyl]-7,8-dihydro-1,6-naphthyridin-5-one]
47 |  | Cc1nccc(Nc2cc(-c3cnc(C)c(OCCN(C)C)c3)ccn2)n1 [Compound I-379, 5-[2-(dimethylamino)ethoxy]-6-methyl-N-(2-methylpyrimidin-4-yl)-3,4′-bipyridin-2′-amine]
95 |  | CC(=O)Nc1cc(-c2cnc(C#N)c(N3CCCCC3C)c2)ccn1 (stereo not drawn) [Compound I-380, N-[6-cyano-5-(2-methylpiperidin-1-yl)-3,4′-bipyridin-2′-yl]acetamide]
> 99 |  | Cc1nccc(Nc2cc(-c3cnc(Cl)c(NS(=O)(=O)N(C)C)c3C)ccn2)n1 [Compound I-381, N′-{6-chloro-4-methyl-2′-[(2-methylpyrimidin-4-yl)amino]-3,4′-bipyridin-5-yl}-N,N-dimethylsulfuric diamide]
> 99 |  | Cc1nc(Nc2cc(-c3cnc(C)c(NS(=O)(=O)c4ccc(F)cc4F)c3)ccn2)nc(C2CC2)n1 [Compound I-382, N-{2′-[(4-cyclopropyl-6-methyl-1,3,5-triazin-2-yl)amino]-6-methyl-3,4′-bipyridin-5-yl}-2,4-difluorobenzene sulfonamide]
91 |  | CCOC(=O)Nc1cc(-c2cnc(Cl)c(NS(=O)(=O)c3ccc(F)cc3F)c2C)ccn1 [Compound I-383, ethyl (6-chloro-5-{[(2,4-difluorophenyl)sulfonyl]amino}-4-methyl-3,4′-bipyridin-2′-yl)carbamate]
73 |  | CC(=O)Nc1cc(-c2cncc(N(CCO)S(=O)(=O)c3ccc(F)cc3F)c2)ccn1 [Compound I-384, N-(5-{[(2,4-difluorophenyl)sulfonyl](2-hydroxyethyl)amino}-3,4′-bipyridin-2′-yl)acetamide]
96 |  | CC(=O)Nc1cc(-c2cnc(C)c(N3CCN(C)S3(=O)=O)c2)ccn1 [Compound I-386, N-[6-methyl-5-(5-methyl-1,1-dioxido-1,2,5-thiadiazolidin-2-yl)-3,4′-bipyridin-2′-yl]acetamide]
> 99 |  | CC(=O)Nc1cc(-c2cnc(C)c(N3CCCNS3(=O)=O)c2)ccn1 [Compound I-387, N-[5-(1,1-dioxido-1,2,6-thiadiazinan-2-yl)-6-methyl-3,4′-bipyridin-2′-yl]acetamide]
98 |  | Cc1ncc(-c2ccnc(NC(=O)C3CC3)c2)cc1C(=O)N(C)C12CC(C1)C2 [Compound I-388, N-(bicyclo[1.1.1]pent-1-yl)-2′-[(cyclopropylcarbonyl)amino]-N,6-dimethyl-3,4′-bipyridine-5-carboxamide]
95 |  | CCOC(=O)Nc1cc(-c2cnc(C)c(NS(=O)(=O)c3ccc(F)cc3F)c2)ccn1 [Compound I-389, ethyl (5-{[(2,4-difluorophenyl)sulfonyl]amino}-6-methyl-3,4′-bipyridin-2′-yl)carbamate]
98 |  | Cc1ccc(Oc2cc(-c3ccnc(Nc4ccnc(C)n4)c3)cnc2C)nc1 [Compound I-390, 6-methyl-5-[(5-methylpyridin-2-yl)oxy]-N-(2-methylpyrimidin-4-yl)-3,4′-bipyridin-2′-amine]
> 99 |  | CC(=O)Nc1cc(-c2cncc(S(=O)(=O)N3CC(F)(F)C3)c2)ccn1 [Compound I-391, N-{5-[(3,3-difluoroazetidin-1-yl)sulfonyl]-3,4′-bipyridin-2′-yl}acetamide]
82 |  | CC(=O)Nc1cc(-c2cnc(C)c(Nc3nc4ccccc4o3)c2)ccn1 [Compound I-392, N-[5-(1,3-benzoxazol-2-ylamino)-6-methyl-3,4′-bipyridin-2′-yl]acetamide]
> 99 |  | CC(=O)Nc1cc(-c2cncc(NS(=O)(=O)c3ccc(F)cc3F)c2Cl)ccn1 [Compound I-394, N-(4-chloro-5-{[(2,4-difluorophenyl)sulfonyl]amino}-3,4′-bipyridin-2′-yl)acetamide]
> 99 |  | CC(=O)Nc1cc(-c2cnc(C)c(S(N)(=O)=O)c2)ccn1 [Compound I-395, N-(6-methyl-5-sulfamoyl-3,4′-bipyridin-2′-yl)acetamide]
94 |  | CC(=O)Nc1cc(-c2cncc(S(=O)(=O)NC3CCC3)c2)ccn1 [Compound I-396, N-[5-(cyclobutylsulfamoyl)-3,4′-bipyridin-2′-yl]acetamide]
